The results in this text go back to paper PMC7830115, “Design, Synthesis, Molecular Docking, and Tumor Resistance Reversal Activity Evaluation of Matrine Derivative with Thiophene Structure” (Molecules, 2021).

One data set has as its system CNE2/CDDP. In words: MTT cytotoxicity assay, CNE2/CDDP. The class given is cell-based. To be noted: Homo sapiens, CNE-2, 72 h, cisplatin resistant cell line, mean ± SD. On the procedure: (§1) Prior to determining the combined inhibitory effects against NPC CDDP-resistance cells, the cytotoxicity effects of these 8 derivatives were evaluated against three NPC cell lines (CNE2, HONE1, and HK-1) and CDDP resistance cell line (CNE2/CDDP) by using MTT (3-(4,5-dimethyl-2-thiazolyl)-2,5-diphenyl-2-H-tetrazolium bromide) assays. […] Moreover, a liver normal cell LO2 was involved to evaluate the selectivity of these 8 compounds by using MTT assays.
(§2) Nasopharyngeal carcinoma cells (CNE2, HONE1, and CNE2/CDDP) were purchased from Shanghai Aulu Biological Technologh Co., Ltd. (Shanghai, China). HK-1 cell was purchased from Shanghai Shunran Biological Technologh Co., Ltd. CNE2, HONE1, and HK-1 were cultured in DMEM medium supplemented with 10% fetal bovine serum, 1% penicillin-streptomycin. CDDP-resistant NPC cell CNE2/CDDP was cultured in DMEM medium supplemented with CDDP to sustain its drug resistance. Cell viability was detected using the MTT assay. All the 8 derivatives were resolved with DMSO to make a storage solution at 1 M, and CDDP was resolved with phosphate buffer saline (PBS) to make a storage solution at 100 mM. The maximum concentrations of these 8 derivatives and CDDP used in MTT assays were set as 1 mM and 100 µM diluted with DMEM medium, respectively. Medium with 0.1% DMSO was set as control. To begin, an initial MTT assay was conducted to evaluate the cytotoxicity of 3a~3h with a dose range of 50, 100, 200, 400, and 800 µM. Then, a more precise dose range was set to calculate the IC50 of each compound (For 3a~3e: 50, 100, 200, 400, 600, and 800 µM; for 3f~3h: 12.5, 25, 50, 100, 200, and 400 µM). Then, 5000 cells were seeded in a 96-well plate for each well and treated with respective compounds at different concentrations for 72 h following additional treatment with MTT for 2~3 h. Then, MTT was removed and 150 µL DMSO was added into each well and the absorption values were measured at 490 nm using a SpectraMAX M5plate reader (Silicon Valley, CA, USA).
In general terms: Tetrazolium assays rely on reduction of a dye to a coloured formazan, in cell work by metabolically active cells.

A short description of data set [1]: Serum ALT, AST and Cr by ELISA. The format is in vivo, BALB/C nude mice. To be noted: groups: vehicle, CDDP 5 mg/kg, 3f 40 mg/kg, combination; ELISA at sacrifice. On the procedure:
(§3) Finally, to evaluate the combination inhibitory effects of compound 3f with CDDP in vivo, the subcutaneous tumor-bearing model was applied by using strain of BALB/C nude mice. In detail, 32 BALB/C nude mice without tumor were purchased and CNE2/CDDP cells (2 × 10^7) were subcutaneously injected into the right flank of each mouse to make tumor burden. Then, the 32 mice with tumor burden were divided into four groups which receive vehicle, CDDP (5 mg/kg), compound 3f (40 mg/kg), and CDDP with 3f combination treatments (5mg/kg for CDDP and 40 mg/kg for 3f), respectively, through intraperitoneal injection with two times a week for one month. […] The adverse effects of treatment were also tested by detecting serum concentration of Alanine Aminotransferase (ALT), Aspartate aminotransferase (AST), and creatinine (Cr).
Mice were sacked at the time of the animal sacrifice and blood was collected to detect ALT, AST, and Cr. Immediately, serum was separated by centrifugation at 2000 g, and ALT, Cr, and AST were determined using ELISA kits (Shanghai Enzyme-linked Biotechnology Co., Ltd., catalog: ml063179, ml058577, and ml057581) according to the manufacture instructions. The absorbance of the plates was read at 450 nm using an automated microplate reader (Bio-Tek, Winooski, VT, USA).
On the technique in general: ELISA stands for enzyme-linked immunosorbent assay.

Data set [2] relates to CNE2/CDDP cells. The experiment in a line: Combined inhibitory effect with CDDP, MTT. The class given is cell-based. To be noted: co-treated with CDDP (5 µM) and compound at IC10, MTT. On the procedure:
Compounds regularly show synergy effects with a relatively low dosage range (IC10 to IC30). In order to preliminarily verify whether 8 compounds could increase cell sensitivity to CDDP, CNE2/CDDP cells were co-treated with CDDP (5 µM) and each compound (IC10), respectively. The cytotoxicity was evaluated by using MTT assays. […] Thus, compound 3f was selected for further experiments.
as §2, with “Medium with 0.1% DMSO was set as control. To begin, an initial MTT assay was conducted to evaluate the cytotoxicity of 3a~3h with a dose range of 50, 100, 200, 400, and 800 µM. Then, a more precise dose range was set to calculate the IC50 of each compound (For 3a~3e: 50, 100, 200, 400, 600, and 800 µM; for 3f~3h: 12.5, 25, 50, 100, 200, and 400 µM). Then, 5000 cells were seeded in a 96-well plate for each well and treated with respective compounds at different concentrations for 72 h following additional treatment with MTT for 2~3 h.” left out, “USA). […]” for “USA).”

Data set [3] concerns NPC cell lines (CNE2, HONE1, and HK-1) and CDDP resistance cell line (CNE2/CDDP). In words: MTT cytotoxicity, summary over NPC cell lines and CDDP resistance cell line. The class given is cell-based. To be noted: range over CNE2, HONE1, HK-1 and CNE2/CDDP, read-out: IC50, anti-proliferative effects. On the procedure:
as §1
Nasopharyngeal carcinoma cells (CNE2, HONE1, and CNE2/CDDP) were purchased from Shanghai Aulu Biological Technologh Co., Ltd. (Shanghai, China). HK-1 cell was purchased from Shanghai Shunran Biological Technologh Co., Ltd. CNE2, HONE1, and HK-1 were cultured in DMEM medium supplemented with 10% fetal bovine serum, 1% penicillin-streptomycin. CDDP-resistant NPC cell CNE2/CDDP was cultured in DMEM medium supplemented with CDDP to sustain its drug resistance. Cell viability was detected using the MTT assay. All the 8 derivatives were resolved with DMSO to make a storage solution at 1 M, and CDDP was resolved with phosphate buffer saline (PBS) to make a storage solution at 100 mM. […] Then, MTT was removed and 150 µL DMSO was added into each well and the absorption values were measured at 490 nm using a SpectraMAX M5plate reader (Silicon Valley, CA, USA).

The subject of data set [4] is CNE2/CDDP cells. The experiment in a line: Subcutaneous tumor-bearing model, CNE2/CDDP. The class given is in vivo. Here is the method:
as §3
The in vivo studies were conducted according to protocols approved by the Animal Ethics Committee of Guangxi University (GXU2018-019). The subcutaneous tumor-bearing model using BALB/C nude mice was applied to assess the in vivo CDDP-resistant reversal activity of compound 3f. In brief, 32 BALB/C nude mice without tumor were purchased and CNE2/CDDP cells (2 × 10^7) were subcutaneously injected into the right flank of each mouse to make tumor burden. Then, the 32 mice with tumor burden were divided into four groups which receive vehicle, CDDP (5 mg/kg), compound 3f (40 mg/kg), and CDDP with 3f combination treatments (5 mg/kg for CDDP and 40 mg/kg for 3f) (n = 8 for each group; twice a week for a month). Drugs were resolved with sterile saline–ethanol–DMSO (89:10:1, v/v/v). Sterile saline–ethanol–DMSO (89:10:1, v/v/v) was used as vehicle. Tumor volume was calculated according to the formula: V = 0.5 × L × W^2 (L: the long diameter of the tumor; W: the short diameter of the tumor). At the time of the animal sacrifice, tumors were excised and weighted.

As a reminder, the IC50 is the midpoint of a concentration-inhibition curve. With `S=C1C(=Cc2ccc(Cl)s2)CCC2C3CCCN4CCCC(CN12)C34` (stereo not shown) [3f, 14-((5-chlorothiophen-2-yl)methylene)thiomatrine], the IC50 was 91.4 ± 8.8 µM with CNE2/CDDP and 30 to 100 µM in data set [3]. Further, the “serum concentrations of ALT, AST, and Cr” value in data set [1] was “no significant changes”. Also, the “increase of the inhibitory effects of CDDP” value with CNE2/CDDP cells [2] was “could increase the inhibitory effects of CDDP”. Besides, the “tumor volume and weight, combined treatment with CDDP” value in the data set on CNE2/CDDP cells [4] (CDDP 5 mg/kg + 3f 40 mg/kg, intraperitoneal, twice a week for one month, compared with CDDP or 3f alone) was “significantly reduced tumor volume and weight”. For the same compound, in the data set with CNE2/CDDP cells [4] (dose of 40 mg/kg, reflected by mouse body weight and ALT, AST, Cr), the toxicity in vivo result is “no obvious toxicity”. Further, in the data set on CNE2/CDDP cells [4] (groups: vehicle, CDDP 5 mg/kg, 3f 40 mg/kg, combination, i.p. twice a week for one month), the “body weight of mice” value is “no significant difference in body weight”.
